The values below are quoted from earlier work in patent US6683056B2, “O-aryl glucoside SGLT2 inhibitors and method” (Bristol-Myers Squibb Company, priority 2000, dated 2004).

In general, Km refers to the concentration of substrate that gives half-maximal velocity.

Each structure is given as a SMILES string.

Series [1] has as its target T1, SGLT1 (Homo sapiens, UniProt P13866).
T1 sequence (P13866 1-664): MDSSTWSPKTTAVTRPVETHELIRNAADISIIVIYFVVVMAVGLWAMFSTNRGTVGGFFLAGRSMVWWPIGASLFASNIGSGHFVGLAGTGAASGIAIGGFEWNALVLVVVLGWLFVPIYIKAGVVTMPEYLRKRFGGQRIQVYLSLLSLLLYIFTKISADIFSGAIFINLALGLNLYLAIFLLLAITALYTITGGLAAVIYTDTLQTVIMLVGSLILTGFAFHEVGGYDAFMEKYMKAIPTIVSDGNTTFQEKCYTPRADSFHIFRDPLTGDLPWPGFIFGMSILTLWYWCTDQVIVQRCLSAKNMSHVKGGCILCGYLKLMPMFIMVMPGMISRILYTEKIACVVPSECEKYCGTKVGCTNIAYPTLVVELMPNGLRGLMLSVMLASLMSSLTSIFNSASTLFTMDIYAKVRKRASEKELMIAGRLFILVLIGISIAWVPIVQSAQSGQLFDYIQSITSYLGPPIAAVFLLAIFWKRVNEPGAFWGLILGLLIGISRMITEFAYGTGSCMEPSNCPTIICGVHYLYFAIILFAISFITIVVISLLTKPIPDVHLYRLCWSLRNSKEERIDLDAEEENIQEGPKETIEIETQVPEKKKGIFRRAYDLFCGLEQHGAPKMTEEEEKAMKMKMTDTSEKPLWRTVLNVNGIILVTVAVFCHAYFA

Series [2] addresses T2, SGLT2 (Homo sapiens, UniProt P31639).
T2 sequence (P31639 1-672): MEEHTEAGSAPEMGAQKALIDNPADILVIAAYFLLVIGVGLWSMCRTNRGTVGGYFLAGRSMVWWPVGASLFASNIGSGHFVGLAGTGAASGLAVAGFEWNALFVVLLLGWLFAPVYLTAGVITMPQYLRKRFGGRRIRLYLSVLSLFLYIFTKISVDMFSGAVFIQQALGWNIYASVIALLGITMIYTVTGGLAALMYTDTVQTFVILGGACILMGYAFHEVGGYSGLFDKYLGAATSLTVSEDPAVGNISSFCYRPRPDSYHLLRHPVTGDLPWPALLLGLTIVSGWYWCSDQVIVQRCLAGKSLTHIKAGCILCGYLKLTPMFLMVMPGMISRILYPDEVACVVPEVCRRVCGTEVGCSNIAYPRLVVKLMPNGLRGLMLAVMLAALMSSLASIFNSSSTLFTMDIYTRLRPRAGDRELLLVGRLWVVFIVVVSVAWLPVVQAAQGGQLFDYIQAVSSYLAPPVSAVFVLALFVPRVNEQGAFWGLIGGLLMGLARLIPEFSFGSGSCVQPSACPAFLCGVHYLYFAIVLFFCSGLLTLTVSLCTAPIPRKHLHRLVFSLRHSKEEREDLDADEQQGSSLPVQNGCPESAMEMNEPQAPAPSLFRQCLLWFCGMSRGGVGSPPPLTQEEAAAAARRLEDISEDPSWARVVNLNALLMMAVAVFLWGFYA
Particulars: read-out: Km values for uptake.

Series [3] has as its system facilitative glucose transporters (GLUTs).
For series [4], the system named is several diabetic rodent models and one canine diabetes model.
The subject of series [5] is normal animals. Conditions: despite the presence of glycosuria.
The conditions of series [6]: oral.

As to `CO[C@H]1O[C@H](CO)[C@@H](O)[C@H](O)[C@H]1O` [AMG, α-methyl-D-glucopyranoside], the Km in series [1] (SGLT1, read-out: Km values for uptake) is 400 µM; in series [2], 1600 µM.
Consider `O=C[C@H](O)[C@@H](O)[C@@H](O)[C@H](O)CO` [galactose], for which the substrate specificity result in series [1] (SGLT1 versus SGLT2) is given as “substrate for SGLT1 only”.
For `O=C(CCc1ccc(O)cc1)c1c(O)cc(O)cc1O` [phloretin], in series [3], the “inhibition of facilitated glucose transport” value is given as “potent inhibitor of facilitated glucose transport”.
As for `O=C(CCc1ccc(O)cc1)c1c(O)cc(O)cc1O[C@@H]1O[C@H](CO)[C@@H](O)[C@H](O)[C@H]1O` [phlorizin], in series [4] (diabetic rodent models and one canine diabetes model), the “in vivo effect on glucose excretion and plasma glucose” value was “promoting glucose excretion, lowering fasting and fed plasma glucose, and promoting glucose utilization without hypoglycemic side effects”. In addition, the “adverse effects of treatment” value in series [4] (treatment for as long as two weeks) is “No adverse effects on plasma ion balance, renal function or renal morphology”. The “hypoglycemic or other adverse effects” value in series [5] is “no hypoglycemic or other adverse effects”. In series [6], the “stability in the gut” value was “hydrolyzed in the gut to its aglycone phloretin”.
